From patent US20110053916A1 (Vertex Pharmaceuticals Incorporated, priority 2009, published 2011) come the findings set out here.

For assay [1], the target named is T1, PknB (Mycobacterium tuberculosis, UniProt P9WI81).
T1 construct: made in house
Nature of the assay: biochemical. Also noted: species or system M. tuberculosis. The note with it: 3 nM PknB, 6 uM GarA, 3 μM ATP, 30 min, competitive tight-binding fit, several symbols in a cell = repeat determinations; for Ki: read-out: Ki Values.

For assay [2], the system named is Mycobacterium tuberculosis H37Ra. The assay can be described thus: Mycobacterium tuberculosis growth inhibition assay (microtiter dilution, resazurin reduction). Conditions: 7H9 broth, 9 days + 24 h resazurin, lowest concentration inhibiting resazurin reduction by >70%, several symbols in a cell = repeat determinations. The assay is classed as cell-based. The protocol: Compounds were screened for their ability to inhibit the growth of Mycobacterium tuberculosis H37Ra using a standard microtiter dilution method with reduction of the dye resazurin as an indicator of growth. The growth assay was carried out in standard Mycobacterium liquid growth medium, 7H9Broth (BD Biosciences, Franklin Lakes, N.J.) supplemented with 10% ADC enrichment (BD Biosciences, Franklin Lakes, N.J.). The medium was inoculate with ˜1×10^6 cells/milliliter of Mycobacterium tuberculosis H37Ra grown on a the surface of a growth medium solid medium (7H11 agar [BD Biosciences, Franklin Lakes, N.J.] supplemented with 10% OADC enrichment [BD Biosciences, Franklin Lakes, N.J.]).
Two-fold serial dilutions (either 7 or 11-step series) of test compounds in DMSO were dispensed into 96-well assay plates (sterile, black sided, clear bottom wells) in a volume of 1 microliter. One microliter of DMSO was dispensed into a control well at the end of each series. One-hundred microliters of the bacterial cell suspension in growth medium was dispensed into each test well containing a DSMO solution of compound. The assay plates were covered with a fitted lid and incubated at 37° C. in a humidified chamber for 9 days. On the ninth day 30 microliters of a 0.01% solution of resazurin (Sigma Chemical Co., St. Louis, Mo.) in distilled water was added to each well and the baseline fluorescence of resazurin was determined by measuring well fluorescence at an excitation wavelength of 492 nm and an emission wavelength of 595 nm on a Spectrafluor Plus (Tecan, Durham, N.C.) instrument. The assay plates were returned to the incubation chamber for 24 hours. After 24 hours, the fluorescence of the wells (resulting from the reduction of resazurin dye) was measured at an excitation wavelength of 492 nm and an emission wavelength of 595 nm on the Spectrafluor Plus instrument. The minimum inhibitory concentration (MIC) was called as the lowest concentration of compound that inhibited the reduction of resazurin by >70%, as compared to the DMSO (untreated) control wells. MIC values are represented as the following values: • A* <1.6 μM • A 1.6 μM<12.5 μM • B** 12.5 μM-25.0 μM • B* 25.0 μM-50.0 μM • B 50.0 μM-100.0 μM • C >100.0 μM
For orientation: The colour change of resazurin is a common sign of viable cells or microbes.

T1 sequence (P9WI81 whole entry): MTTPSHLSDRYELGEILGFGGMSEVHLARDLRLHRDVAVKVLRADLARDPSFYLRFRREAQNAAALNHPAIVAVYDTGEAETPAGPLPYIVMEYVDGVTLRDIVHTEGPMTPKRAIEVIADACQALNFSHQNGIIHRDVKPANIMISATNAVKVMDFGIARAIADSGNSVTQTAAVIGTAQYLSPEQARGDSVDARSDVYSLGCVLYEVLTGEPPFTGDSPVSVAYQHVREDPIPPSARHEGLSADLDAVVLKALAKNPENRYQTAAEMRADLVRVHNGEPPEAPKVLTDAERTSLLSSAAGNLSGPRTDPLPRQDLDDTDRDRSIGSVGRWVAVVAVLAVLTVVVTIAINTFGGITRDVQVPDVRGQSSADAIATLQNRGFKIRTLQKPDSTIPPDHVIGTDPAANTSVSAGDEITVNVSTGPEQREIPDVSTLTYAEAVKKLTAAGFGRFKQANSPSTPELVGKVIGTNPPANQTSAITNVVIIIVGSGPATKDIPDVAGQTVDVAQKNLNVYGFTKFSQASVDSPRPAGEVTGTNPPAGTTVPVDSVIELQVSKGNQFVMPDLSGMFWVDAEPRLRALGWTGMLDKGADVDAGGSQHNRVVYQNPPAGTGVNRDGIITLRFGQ

For the molecule `NC(=O)c1ncc(Cl)c(Nc2cc(C3CC3)[nH]n2)n1` [Compound 303, 5-chloro-4-[(5-cyclopropyl-1H-pyrazol-3-yl)amino]-pyrimidine-2-carboxamide], the Ki in assay [1] was in the range of 2000 to 4000 nM. Moreover, in assay [2], the MIC values entry is on record as “B+”. Regarding `Cc1cc(Nc2nc(-c3ccc(S(N)(=O)=O)s3)ncc2Cl)n[nH]1` [Compound 224, 5-[5-chloro-4-[(5-methyl-1H-pyrazol-3-yl)amino]-pyrimidin-2-yl]thiophene-2-sulfonamide], the Ki in assay [1] lay within 1 to 10 nM. Moreover, the MIC values entry in assay [2] is recorded as “B++”.

`CC(C)(C)NS(=O)(=O)c1ccc(-c2ncc(Br)c(Nc3cc(C4CC4)[nH]n3)n2)s1` [Compound 170, 5-[5-bromo-4-[(5-cyclopropyl-1H-pyrazol-3-yl)amino]-pyrimidin-2-yl]-N-tert-butyl-thiophene-2-sulfonamide]: the “Ki Values” in assay [1] was “A*, A”. Besides, the MIC values result in assay [2] is “B+”. For the molecule `C=C(Cl)c1cnc(-c2ccccc2)nc1Nc1cc(C2CC2)[nH]n1` [Compound 21, 5-(1-chlorovinyl)-N-(5-cyclopropyl-1H-pyrazol-3-yl)-2-phenyl-pyrimidin-4-amine], in assay [1], the Ki lay in the range of 500 to 1000 nM. In addition, in assay [2], the MIC values entry was “B+, B, B”. As for `O=S(=O)(NC1CCOCC1)c1ccc(-c2ncc(Cl)c(Nc3cc(C4CC4)[nH]n3)n2)s1` [Compound 148, 5-[5-chloro-4-[(5-cyclopropyl-1H-pyrazol-3-yl)amino]-pyrimidin-2-yl]-N-tetrahydropyran-4-yl-thiophene-2-sulfonamide], in assay [1], the “Ki Values” was “A, B**”. For the same molecule, in assay [2], the MIC values result was “B, C”. Consider `CC(C)(C)c1cc(Nc2nc(-c3ccc(S(N)(=O)=O)s3)ncc2Cl)n[nH]1` [Compound 236, 5-(4-(5-tert-butyl-1H-pyrazol-3-ylamino)-5-chloropyrimidin-2-yl)thiophene-2-sulfonamide], for which, in assay [1], the inhibition constant (Ki) fell in the range of 100 to 500 nM. The MIC values result in assay [2] is recorded as “A+, A, A, A, A”. In the case of `Oc1ccc(-c2ncc(Cl)c(Nc3cc(C4CC4)[nH]n3)n2)cc1` [Compound 126, 4-[5-chloro-4-[(5-cyclopropyl-1H-pyrazol-3-yl)amino]-pyrimidin-2-yl]phenol], in assay [1], the Ki is 10 to 50 nM. The MIC values result in assay [2] is “B++, B+”.

On to `NS(=O)(=O)c1ccc(-c2ncc(NC=O)c(Nc3cc(C4CC4)[nH]n3)n2)s1` [Compound 252, N-[4-[(5-cyclopropyl-1H-pyrazol-3-yl)amino]-2-(5-sulfamoyl-2-thienyl)-pyrimidin-5-yl]formamide], for which the inhibition constant (Ki) in assay [1] was in the range of 10 to 50 nM. In addition, in assay [2], the MIC values entry was “B+”. In the case of `NCCNS(=O)(=O)c1cccc(-c2ncc(Cl)c(Nc3cc(C4CC4)[nH]n3)n2)c1` [Compound 138, N-(2-aminoethyl)-3-[5-chloro-4-[(5-cyclopropyl-1H-pyrazol-3-yl)amino]-pyrimidin-2-yl]-benzenesulfonamide], in assay [1], the Ki fell in the range of 10 to 50 nM. Moreover, the MIC values entry in assay [2] is reported as “B, C”. Regarding `CC(C)(C)NS(=O)(=O)c1ccc(-c2ncc(CCO)c(Nc3cc(C4CC4)[nH]n3)n2)s1` [Compound 228, 5-[4-[(5-cyclopropyl-1H-pyrazol-3-yl)amino]-5-(2-hydroxyethyl)pyrimidin-2-yl]-N-tert-butyl-thiophene-2-sulfonamide], the MIC values result in assay [2] is listed as “B+”. As to `O=C(O)c1ccc(Nc2nccc(Nc3cc(C4CC4)n[nH]3)n2)cc1` [Compound 57, 4-[[4-[(5-cyclopropyl-2H-pyrazol-3-yl)amino]pyrimidin-2-yl]amino]benzoic acid], the inhibition constant (Ki) in assay [1] is 100 to 500 nM. For the molecule `C#Cc1cnc(-c2ccc(C(O)C(=O)O)s2)nc1Nc1cc(C2CC2)[nH]n1` (centres unmarked) [Compound 231, 2-[5-[4-[(5-cyclopropyl-1H-pyrazol-3-yl)amino]-5-ethynyl-pyrimidin-2-yl]-2-thienyl]-2-hydroxy-acetic acid], the Ki in assay [1] is 50 to 100 nM. On to `NS(=O)(=O)c1ccccc1Nc1nccc(Nc2cc(C3CC3)[nH]n2)n1` [Compound 120, 2-[[4-[(5-cyclopropyl-1H-pyrazol-3-yl)amino]pyrimidin-2-yl]amino]benzenesulfonamide], for which the Ki in assay [1] is 100 to 500 nM. `NS(=O)(=O)c1ccc(-c2nccc(Nc3cc(C4CC4)[nH]n3)n2)s1` [Compound 50, 5-(4-(5-cyclopropyl-1H-pyrazol-3-ylamino)pyrimidin-2-yl)thiophene-2-sulfonamide]: the Ki in assay [1] fell in the range of 1 to 10 nM. Regarding `N#CCc1ccc(-c2nccc(Nc3cc(C4CC4)[nH]n3)n2)cc1` [Compound 17, 2-(4-(4-(5-cyclopropyl-1H-pyrazol-3-ylamino)pyrimidin-2-yl)phenyl)acetonitrile], the Ki in assay [1] was in the range of 10 to 50 nM. On to `N#Cc1ccc(-c2ncc(Br)c(Nc3cc(C4CC4)[nH]n3)n2)s1` [Compound 176, 5-[5-bromo-4-[(5-cyclopropyl-1H-pyrazol-3-yl)amino]-pyrimidin-2-yl]thiophene-2-carbonitrile], for which the Ki in assay [1] lay within 1 to 10 nM.

With `c1csc(-c2nccc(Nc3cc(C4CC4)[nH]n3)n2)c1` [Compound 27, N-(5-cyclopropyl-1H-pyrazol-3-yl)-2-(thiophen-2-yl)pyrimidin-4-amine], the Ki in assay [1] was 10 to 50 nM. `C#Cc1cnc(-c2ccc(C(=O)C(=O)O)s2)nc1Nc1cc(C2CC2)[nH]n1` [Compound 246, 2-[5-[4-[(5-cyclopropyl-1H-pyrazol-3-yl)amino]-5-ethynyl-pyrimidin-2-yl]-2-thienyl]-2-oxo-acetic acid]: the Ki in assay [1] fell in the range of 10 to 50 nM. In the case of `CNS(=O)(=O)c1cccc(-c2ncc(Cl)c(Nc3cc(C4CC4)[nH]n3)n2)c1` [Compound 127, 3-[5-chloro-4-[(5-cyclopropyl-1H-pyrazol-3-yl)amino]-pyrimidin-2-yl]-N-methyl-benzenesulfonamide], in assay [1], the Ki lay in the range of 10 to 50 nM. Turning to `NS(=O)(=O)c1ccc(-c2ncc(Cl)c(Nc3cc(-c4ccco4)[nH]n3)n2)s1` [Compound 247, 5-[5-chloro-4-[[5-(2-furyl)-1H-pyrazol-3-yl]amino]-pyrimidin-2-yl]thiophene-2-sulfonamide], in assay [1], the Ki was 100 to 500 nM.

Turning to `Cc1cnc(-c2cccs2)nc1Nc1cc(C2CC2)[nH]n1` [Compound 38, N-(5-cyclopropyl-1H-pyrazol-3-yl)-5-methyl-2-(thiophen-2-yl)pyrimidin-4-amine], the “Ki Values” in assay [1] is “A*, A”.

`C#Cc1cnc(N2CC[C@@H](N)C2)nc1Nc1cc(C2CC2)n[nH]1` [Compound 184, 2-(3-aminopyrrolidin-1-yl)-N-(5-cyclopropyl-2H-pyrazol-3-yl)-5-ethynyl-pyrimidin-4-amine]: in assay [1], the Ki was greater than 4000 nM.

Take `CC(C)(C)NS(=O)(=O)c1ccc(-c2ncc(NC=O)c(Nc3cc(C4CC4)[nH]n3)n2)s1` [Compound 253, N-[4-[(5-cyclopropyl-1H-pyrazol-3-yl)amino]-2-[5-(tert-butylsulfamoyl)-2-thienyl]-pyrimidin-5-yl]formamide]: the Ki in assay [1] fell in the range of 100 to 500 nM. Take `Brc1cnc(-c2ccccc2)nc1Nc1cc(C2CC2)n[nH]1` [Compound 8, 5-Bromo-N-(5-cyclopropyl-1H-pyrazol-3-yl)-2-phenylpyrimidin-4-amine]: in assay [1], the inhibition constant Ki was 100 to 500 nM. `Cc1cnc(-c2ccc(S(C)(=O)=O)cc2)nc1Nc1cc(C2CC2)[nH]n1` [Compound 20, N-(5-cyclopropyl-1H-pyrazol-3-yl)-5-methyl-2-(4-(methylsulfonyl)phenyl)pyrimidin-4-amine]: in assay [1], the Ki lay within 100 to 500 nM.

With `C#Cc1cnc(-c2ccc(C(O)CCOC)s2)nc1Nc1cc(C2CC2)n[nH]1` (centres unmarked) [Compound 230, 1-[5-[4-[(5-cyclopropyl-2H-pyrazol-3-yl)amino]-5-ethynyl-pyrimidin-2-yl]-2-thienyl]-3-methoxy-propan-1-ol], in assay [1], the Ki is 50 to 100 nM. Take `Clc1cnc(Nc2ccc3[nH]ncc3c2)nc1Nc1cc(C2CC2)[nH]n1` [Compound 62, 5-chloro-N4-(5-cyclopropyl-1H-pyrazol-3-yl)-N2-(1H-indazol-5-yl)pyrimidine-2,4-diamine]: in assay [1], the Ki is greater than 4000 nM. As to `O=C(NC1CCCCC1)c1nccc(Nc2cc(C3CC3)n[nH]2)n1` [Compound 109, N-cyclohexyl-4-[(5-cyclopropyl-2H-pyrazol-3-yl)amino]pyrimidine-2-carboxamide], the “Ki Values” in assay [1] was “B, B*”. As to `NS(=O)(=O)C/C=C/c1cccc(Nc2cc(C3CC3)[nH]n2)n1` [Compound 270, 3-[6-[(5-cyclopropyl-1H-pyrazol-3-yl)amino]-2-pyridyl]prop-2-ene-1-sulfonamide], in assay [1], the “Ki Values” was “B**, B*, B*, B*”.

As usually defined, the Ki is the equilibrium dissociation constant of an inhibitor or competing ligand from its target.
